# Laboratory results: ChEMBL document CHEMBL1201862, “PubChem BioAssay data set” (2004)
#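 Tested at 5 concentrations; 48 h exposure; 96-well plates; endpoints linearly interpolated, else capped at highest concentration. GI50 is the concentration that inhibits growth by half.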 Calls of active or inactive are those of the source. Rule as the data show it: active = GI50 up to about 1.1 µM and inactive = higher.
# Legend:
# Assay in all cases: DTP human tumour cell line panel, 48 h
# T47D = tested on: T47D
# HCC 2998 = tested on: HCC 2998
# CAKI-1 = tested on: CAKI-1
# KM12 = tested on: KM12
# A498 = tested on: A498
# PC-3 = tested on: PC-3
# SK-MEL-5 = tested on: SK-MEL-5
# HL-60 = tested on: HL-60
# NCI-H226 = tested on: NCI-H226
# MOLT-4 = tested on: MOLT-4
# HCT-15 = tested on: HCT-15
# SK-OV-3 = tested on: SK-OV-3
# SN12C = tested on: SN12C
# Malme-3M = tested on: Malme-3M
# 786-0 = tested on: 786-0
# SF-268 = tested on: SF-268
# NCI-H460 = tested on: NCI-H460
# SK-MEL-28 = tested on: SK-MEL-28
# RXF 393 = tested on: RXF 393
SMILES,GI50 (T47D),GI50 (HCC 2998),GI50 (CAKI-1),GI50 (KM12),GI50 (A498),GI50 (PC-3),GI50 (SK-MEL-5),GI50 (HL-60),GI50 (NCI-H226),GI50 (MOLT-4),GI50 (HCT-15) [µM],GI50 (SK-OV-3),GI50 (SN12C),GI50 (Malme-3M),GI50 (786-0),GI50 (SF-268),GI50 (NCI-H460),GI50 (SK-MEL-28),GI50 (RXF 393)
O=C(/C=C/c1ccccc1)CCC1C(=O)NC(=O)NC1=O,> 100 µM (inactive),> 100 µM (inactive),> 100 µM (inactive),> 100 µM (inactive),> 100 µM (inactive),> 100 µM (inactive),> 100 µM (inactive),> 100 µM (inactive),> 100 µM (inactive),35.7 µM (inactive),> 100,> 100 µM (inactive),> 100 µM (inactive),> 100 µM (inactive),> 100 µM (inactive),> 100 µM (inactive),> 100 µM (inactive),> 100 µM (inactive),–
O=c1c2ccccc2[nH]c(=S)n1-c1ccc(/N=N/c2cccc3c(O)cccc23)cc1,> 100 µM (inactive),> 100 µM (inactive),> 100 µM (inactive),> 100 µM (inactive),–,67.6 µM (inactive),24.9 µM (inactive),54.8 µM (inactive),> 100 µM (inactive),45.3 µM (inactive),38.5,> 100 µM (inactive),> 100 µM (inactive),88.9 µM (inactive),> 100 µM (inactive),> 100 µM (inactive),> 100 µM (inactive),> 100 µM (inactive),> 100 µM (inactive)
COC(=O)CCC1(C)C2CCC1/C(=N/O)C2 (centres undefined),> 100 µM (inactive),> 100 µM (inactive),> 100 µM (inactive),> 100 µM (inactive),> 100 µM (inactive),> 100 µM (inactive),> 100 µM (inactive),–,> 100 µM (inactive),> 100 µM (inactive),> 100,> 100 µM (inactive),> 100 µM (inactive),> 100 µM (inactive),> 100 µM (inactive),> 100 µM (inactive),–,> 100 µM (inactive),> 100 µM (inactive)
Cc1ccc(N2C(=O)C=C(C3=C(O)C(=O)N(c4ccc(C)cc4)C3=O)C2=O)cc1,> 100 µM (inactive),> 100 µM (inactive),–,–,> 100 µM (inactive),> 100 µM (inactive),> 100 µM (inactive),> 100 µM (inactive),> 100 µM (inactive),> 100 µM (inactive),> 100,> 100 µM (inactive),> 100 µM (inactive),> 100 µM (inactive),> 100 µM (inactive),> 100 µM (inactive),> 100 µM (inactive),> 100 µM (inactive),–
O=c1[nH]c(=O)n(C2CC(O)C(CO)O2)c2nc3ccc4cc5ccccc5cc4c3nc12 (centres undefined),> 100 µM (inactive),> 100 µM (inactive),> 100 µM (inactive),51.6 µM (inactive),> 100 µM (inactive),> 100 µM (inactive),> 100 µM (inactive),–,> 100 µM (inactive),> 100 µM (inactive),> 100,53.6 µM (inactive),> 100 µM (inactive),> 100 µM (inactive),> 100 µM (inactive),> 100 µM (inactive),–,> 100 µM (inactive),> 100 µM (inactive)
Cc1ccc(CC2(C(=O)O)Cc3ccc(C)cc3C2)cc1 (centres undefined),> 100 µM (inactive),> 100 µM (inactive),> 100 µM (inactive),89.7 µM (inactive),> 100 µM (inactive),51.5 µM (inactive),> 100 µM (inactive),> 100 µM (inactive),> 100 µM (inactive),> 100 µM (inactive),54,> 100 µM (inactive),> 100 µM (inactive),> 100 µM (inactive),> 100 µM (inactive),> 100 µM (inactive),> 100 µM (inactive),> 100 µM (inactive),–
O=C(NC1CCCCC1)c1nn[nH]c1Cl,> 100 µM (inactive),> 100 µM (inactive),> 100 µM (inactive),> 100 µM (inactive),> 100 µM (inactive),> 100 µM (inactive),> 100 µM (inactive),–,–,> 100 µM (inactive),> 100,> 100 µM (inactive),> 100 µM (inactive),–,> 100 µM (inactive),> 100 µM (inactive),> 100 µM (inactive),> 100 µM (inactive),> 100 µM (inactive)
CC1CCC2C(C)C(OC(=O)CCC(=O)O)OC3OC4(C)CCC1C32OO4 (centres undefined),0.828 µM (active),5.94 µM (inactive),12.1 µM (inactive),1.33 µM (inactive),27.2 µM (inactive),0.353 µM (active),1.57 µM (inactive),0.427 µM (active),–,0.346 µM (active),0.388,53.6 µM (inactive),18 µM (inactive),–,15.4 µM (inactive),16.7 µM (inactive),7.31 µM (inactive),37.5 µM (inactive),–
O=C(C/N=C(\CN(c1ccccc1)c1ccccc1)Oc1c([N+](=O)[O-])cc([N+](=O)[O-])cc1[N+](=O)[O-])N1CCNCC1,> 100 µM (inactive),> 100 µM (inactive),–,> 100 µM (inactive),–,> 100 µM (inactive),28.7 µM (inactive),> 100 µM (inactive),> 100 µM (inactive),> 100 µM (inactive),> 100,0.622 µM (active),> 100 µM (inactive),> 100 µM (inactive),> 100 µM (inactive),> 100 µM (inactive),> 100 µM (inactive),> 100 µM (inactive),69.8 µM (inactive)
CC(=O)OC12c3ccccc3C(c3ccccc31)C1C(=O)N(N=C(C)C)C(=O)C12 (centres undefined),70.8 µM (inactive),> 100 µM (inactive),> 100 µM (inactive),> 100 µM (inactive),–,> 100 µM (inactive),> 100 µM (inactive),> 100 µM (inactive),> 100 µM (inactive),> 100 µM (inactive),> 100,> 100 µM (inactive),> 100 µM (inactive),63.2 µM (inactive),> 100 µM (inactive),> 100 µM (inactive),–,> 100 µM (inactive),> 100 µM (inactive)
O=C(NCc1ccccc1)c1nn[nH]c1O,> 100 µM (inactive),> 100 µM (inactive),> 100 µM (inactive),> 100 µM (inactive),–,> 100 µM (inactive),> 100 µM (inactive),> 100 µM (inactive),> 100 µM (inactive),> 100 µM (inactive),> 100,> 100 µM (inactive),> 100 µM (inactive),> 100 µM (inactive),> 100 µM (inactive),> 100 µM (inactive),> 100 µM (inactive),> 100 µM (inactive),> 100 µM (inactive)
CCOC(=O)C1C(c2ccc(OC)cc2)c2c(n[nH]c2O)CC1(O)OCC (centres undefined),> 100 µM (inactive),> 100 µM (inactive),> 100 µM (inactive),> 100 µM (inactive),> 100 µM (inactive),> 100 µM (inactive),> 100 µM (inactive),> 100 µM (inactive),–,> 100 µM (inactive),> 100,–,> 100 µM (inactive),> 100 µM (inactive),> 100 µM (inactive),> 100 µM (inactive),> 100 µM (inactive),> 100 µM (inactive),–
